One molecule from PMC12680549, “Impact of Seasonal Variation on Antioxidant, Enzyme Inhibitory, and Anti‐Inflammatory Potentials of Cistus creticus Leaf Extracts” (ChemistryOpen, 2025) can be followed below.

For the assay, the system named is T1, urease.
T1 construct: gene urea amidohydrolase; the jack bean enzyme is only a guess from the usual assay; Helicobacter pylori is named only as background
Description: phenol-hypochlorite assay, […] nm. In kind it is biochemical, Canavalia ensiformis. The note with it: 17 mM urea, 30 °C, 50 min; enzyme source not stated.

On to `NC(N)=S` [Thiourea], for which the “Antiurease / IC50 μg mL^-1” value worked out at 11.57 ± 0.68 µg/mL.
